Data published in PMC3129366 (Chemico-biological interactions, 2011).
Blank lines part the entries; values can stand above or below the molecule they belong to.

What was measured:
Rabbit CYP2E1 = Rabbit CYP2E1 (Oryctolagus cuniculus, UniProt P08682); assay: Inhibition of p-nitrophenol hydroxylation by purified rabbit CYP2E1; format: biochemical
CYP2E1 [1] = molecular target: CYP2E1 (Rattus norvegicus, UniProt P05182); assay: Inhibition of chlorzoxazone 6-hydroxylation in CYP2E1 liver microsomes; conditions: chlorzoxazone metabolism; for pKi: Log (1/Ki)
Sequence of CYP2E1 (Rattus norvegicus, UniProt P05182) (P05182 2-493): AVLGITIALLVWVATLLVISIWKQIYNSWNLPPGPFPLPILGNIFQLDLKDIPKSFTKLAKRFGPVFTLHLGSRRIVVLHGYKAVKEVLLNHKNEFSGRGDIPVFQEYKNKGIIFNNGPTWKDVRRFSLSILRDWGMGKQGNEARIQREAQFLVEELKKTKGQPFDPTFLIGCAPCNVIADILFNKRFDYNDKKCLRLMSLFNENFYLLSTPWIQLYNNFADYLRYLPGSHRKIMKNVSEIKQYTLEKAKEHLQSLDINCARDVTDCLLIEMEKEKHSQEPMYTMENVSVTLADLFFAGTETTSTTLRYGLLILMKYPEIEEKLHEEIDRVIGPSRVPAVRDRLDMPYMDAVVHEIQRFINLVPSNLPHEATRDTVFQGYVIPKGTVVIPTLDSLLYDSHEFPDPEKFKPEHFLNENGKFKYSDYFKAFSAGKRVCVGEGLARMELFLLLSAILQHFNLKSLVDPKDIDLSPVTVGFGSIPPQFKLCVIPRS

CYP2E1 [2] = molecular target: T1, CYP2E1 (Rattus norvegicus, UniProt P05182, species not given); assay: as above; conditions: human, microsomes, chlorzoxazone metabolism
T1 sequence (P05182 2-493): as above

CYP2E1 [3] = molecular target: T1, CYP2E1; assay: in vitro; conditions: human, microsomes
[4] = Ki, substituted pyrazoles, purified rabbit CYP2E1, p-nitrophenol as substrate
[5] = pH 7.4, pKi±stdev, Table 3 test set

Sequence of Rabbit CYP2E1 (P08682 whole entry): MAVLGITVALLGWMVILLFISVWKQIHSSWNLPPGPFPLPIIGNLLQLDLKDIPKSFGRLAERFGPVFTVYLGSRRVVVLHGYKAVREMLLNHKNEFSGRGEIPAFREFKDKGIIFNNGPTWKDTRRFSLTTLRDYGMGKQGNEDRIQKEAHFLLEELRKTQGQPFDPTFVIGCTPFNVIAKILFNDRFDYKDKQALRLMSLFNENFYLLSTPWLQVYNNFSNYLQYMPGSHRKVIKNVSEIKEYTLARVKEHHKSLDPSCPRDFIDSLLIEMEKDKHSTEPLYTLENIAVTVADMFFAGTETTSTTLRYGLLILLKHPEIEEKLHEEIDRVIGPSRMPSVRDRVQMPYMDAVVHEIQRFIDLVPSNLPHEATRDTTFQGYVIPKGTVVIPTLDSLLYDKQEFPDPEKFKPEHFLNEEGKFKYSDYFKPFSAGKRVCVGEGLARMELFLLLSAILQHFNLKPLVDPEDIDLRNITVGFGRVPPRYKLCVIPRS

Ki (Rabbit CYP2E1; [4]): 21 µM
SMILES: O=[N+]([O-])c1cn[nH]c1 [4-nitropyrazole]

Ki (Rabbit CYP2E1; [4]): 3 µM
SMILES: Cc1n[nH]cc1Br [4-bromo-3-methylpyrazole]

SMILES: CCCCn1ccnc1 [N-(n-butyl)imidazole]
pKi (CYP2E1 [1]): 6.2

Ki (Rabbit CYP2E1; [4]): 1 µM
SMILES: Ic1cn[nH]c1 [4-iodopyrazole]

SMILES: O=[N+]([O-])c1c[nH]cn1 [4-nitroimidazole]
Ki at 10 min (CYP2E1 [2]; pH 7.4, pKi, Log (1/Ki)): 12.6 µM | Ki at 10 min (CYP2E1 [2]; [5]): 12.6 µM

SMILES: Cn1ccnc1 [1-methylimidazole]
Ki at 10 min (CYP2E1 [2]; pH 7.4, pKi, Log (1/Ki)): 6.31 µM

SMILES: O=C(n1ccnc1)C(F)(F)F [1-(trifluoroacetyl)-imidazole]
Ki at 10 min (CYP2E1 [2]; pH 7.4, pKi, Log (1/Ki)): 251 µM

SMILES: Oc1cccc2cccnc12 [8-hydroxyquinoline]
Ki at 10 min (CYP2E1 [2]; pH 7.4, pKi, Log (1/Ki)): 79.4 µM

Ki (Rabbit CYP2E1; [4]): 5750 µM
SMILES: CC(=O)Nc1cn[nH]c1 [4-acetylaminopyrazole]

Ki at 10 min (CYP2E1 [3]; pH 7.4, Ki): 931 µM | Ki at 10 min (CYP2E1 [3]; pH 7.4, pKi): 1000 µM | Ki at 10 min (CYP2E1 [3]; pH 7.4, pKi±stdev): 1000 µM
SMILES: Oc1ccc2ccccc2n1 [2-hydroxyquinoline]

SMILES: COC(=O)c1cccnc1 [methyl nicotinate]
Ki at 10 min (CYP2E1 [2]; pH 7.4, pKi, Log (1/Ki)): 20 µM

SMILES: c1ccc2ncccc2c1 [quinoline]
Ki at 10 min (CYP2E1 [2]; pH 7.4, pKi, Log (1/Ki)): 63.1 µM | Ki at 10 min (CYP2E1 [2]; [5]): 63.1 µM

pKi (Rabbit CYP2E1; Log (1/Ki), substituted pyrazoles, purified rabbit CYP2E1, p-nitrophenol): 6.1 | Ki (Rabbit CYP2E1; substituted pyrazoles, purified rabbit CYP2E1, p-nitrophenol as substrate): 0.79 µM
SMILES: CCCOc1cn[nH]c1 [4-O-propylpyrazole]

Ki at 10 min (CYP2E1 [3]; pH 7.4, Ki): 592 µM | Ki at 10 min (CYP2E1 [3]; pH 7.4, pKi): 631 µM
SMILES: Oc1ccnc2ccccc12 [4-hydroxyquinoline]

Ki (Rabbit CYP2E1; [4]): 5.4 µM
SMILES: Cc1cc[nH]n1 [3-methylpyrazole]

Ki (Rabbit CYP2E1; [4]): 0.06 µM
SMILES: CCCCCc1cn[nH]c1 [4-pentylpyrazole]

Ki (Rabbit CYP2E1; [4]): 0.16 µM | Ki (Rabbit CYP2E1; pKi±stdev, Table 3 test set, substituted pyrazole, purified rabbit CYP2E1, p-nitrophenol): 0.158 µM
SMILES: CCCc1cn[nH]c1 [4-propylpyrazole]

SMILES: COC(=O)c1ccncc1 [methyl isonicotinate]
pKi (CYP2E1 [1]): 5.6 | pKi±stdev (CYP2E1 [1]; Table 3 test set): 5.6±0.1

SMILES: Cc1cnc2ccccc2c1 [3-methylquinoline]
Ki at 10 min (CYP2E1 [2]; pH 7.4, pKi, Log (1/Ki)): 100 µM

SMILES: OCc1c[nH]cn1 [4-hydroxymethylimidazole]
Ki at 10 min (CYP2E1 [2]; pH 7.4, pKi, Log (1/Ki)): 501 µM

SMILES: Cc1cccc(C)n1 [2,6-lutidine]
Ki at 10 min (CYP2E1 [2]; pH 7.4, pKi, Log (1/Ki)): 398 µM

Ki at 10 min (CYP2E1 [3]; pH 7.4, Ki): 218 µM | Ki at 10 min (CYP2E1 [3]; pH 7.4, pKi): 200 µM
SMILES: Oc1ccc2ncccc2c1 [6-hydroxyquinoline]

SMILES: c1cn[nH]c1 [pyrazole]
pKi (CYP2E1 [1]): 4.4

SMILES: c1ccncc1 [pyridine]
Ki at 10 min (CYP2E1 [2]; pH 7.4, pKi, Log (1/Ki)): 12.6 µM
